Reference: ChEMBL document CHEMBL1201862, “PubChem BioAssay data set” (2004)
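Test compounds were applied to cells in 96-well plates for 48 hours at 5 doses. GI50: concentration for 50% inhibition of growth.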 Calls of active or inactive are those of the source. No stated cut-off is given here; in the data, active = GI50 up to about 1.1 µM and inactive = higher.

Assays:
Test in all cases: NCI-60 cell line screen, 48 h
[1] = tested on: ACHN
[2] = tested on: HCT-116
[3] = tested on: SK-MEL-5
[4] = tested on: 786-0
[5] = tested on: HT-29
[6] = tested on: LOX IMVI
[7] = tested on: EKVX
[8] = tested on: NCI/ADR-RES
[9] = tested on: MOLT-4
[10] = tested on: HCC 2998
[11] = tested on: TK-10
[12] = tested on: COLO 205
[13] = tested on: HCT-15
[14] = tested on: PC-3
[15] = tested on: SK-OV-3
[16] = tested on: K562
[17] = tested on: OVCAR-5
[18] = tested on: A549
[19] = tested on: NCI-H23
[20] = tested on: MDA-MB-435
[21] = tested on: SNB-75
[22] = tested on: HL-60
[23] = tested on: SF-539
[24] = tested on: RPMI-8226
[25] = tested on: OVCAR-8
[26] = tested on: OVCAR-4
[27] = tested on: UACC-257
[28] = tested on: HOP-62
[29] = tested on: HOP-92
[30] = tested on: KM12
[31] = tested on: SF-295
[32] = tested on: NCI-H460
[33] = tested on: CCRF-CEM
[34] = tested on: Malme-3M
[35] = tested on: T47D
[36] = tested on: A498
[37] = tested on: NCI-H522
[38] = tested on: MDA-MB-231
[39] = tested on: M14
[40] = tested on: NCI-H226
[41] = tested on: SF-268
[42] = tested on: U-251
[43] = tested on: DU-145
[44] = tested on: SW-620
[45] = tested on: SK-MEL-2
[46] = tested on: SN12C
[47] = tested on: MCF7
[48] = tested on: UO-31
[49] = tested on: SK-MEL-28
[50] = tested on: CAKI-1
[51] = tested on: OVCAR-3
[52] = tested on: Hs-578T
[53] = tested on: SNB-19
[54] = tested on: UACC-62
[55] = tested on: RXF 393
[56] = tested on: BT-549
[57] = tested on: IGROV-1
[58] = tested on: MDA-N

Measured: GI50

OCC(O)C(O)C(O)C(O)c1nc2cc(Cl)ccc2[nH]1 (configuration not stated)
> 100 µM: [13]
inactive: [1] > 100 µM | [2] > 100 µM | [3] > 100 µM | [4] > 100 µM | [5] > 100 µM | [6] > 100 µM | [7] > 100 µM | [8] > 100 µM | [9] > 100 µM | [10] > 100 µM | [11] > 100 µM | [12] > 100 µM | [14] > 100 µM | [15] 56.4 µM | [16] > 100 µM | [17] > 100 µM | [18] > 100 µM | [19] > 100 µM | [20] > 100 µM | [21] > 100 µM | [22] 2.14 µM | [23] > 100 µM | [24] > 100 µM | [25] > 100 µM | [26] > 100 µM | [27] > 100 µM | [28] 90.4 µM | [29] > 100 µM | [30] > 100 µM | [31] 28.8 µM | [32] > 100 µM | [33] > 100 µM | [34] > 100 µM | [35] > 100 µM | [36] > 100 µM | [37] > 100 µM | [38] > 100 µM | [39] > 100 µM | [40] 26.2 µM | [41] > 100 µM | [42] > 100 µM | [43] > 100 µM | [44] > 100 µM | [45] > 100 µM | [46] > 100 µM | [47] > 100 µM | [48] > 100 µM | [49] > 100 µM | [50] > 100 µM | [51] > 100 µM | [52] > 100 µM | [53] > 100 µM | [54] > 100 µM | [55] > 100 µM | [56] > 100 µM | [57] > 100 µM | [58] > 100 µM

CCNc1nc(N)c(C(=O)c2ccc(Cl)cc2)s1
26.9 µM: [13]
inactive: [1] 23.7 µM | [2] 27.9 µM | [3] 27.7 µM | [4] 39.9 µM | [5] 27 µM | [6] 40.1 µM | [7] 4.52 µM | [8] 42.1 µM | [9] 27.4 µM | [11] 14.3 µM | [12] 18.9 µM | [14] 39.9 µM | [15] 29.9 µM | [16] 29.3 µM | [17] 32.7 µM | [18] 20.7 µM | [19] 45.6 µM | [20] 32.2 µM | [22] 13.6 µM | [23] 33 µM | [24] 30.3 µM | [26] 36.3 µM | [27] 71 µM | [28] 44.2 µM | [29] > 100 µM | [30] 30.3 µM | [32] 18.8 µM | [33] 5.75 µM | [34] > 100 µM | [35] 33 µM | [36] 20.8 µM | [38] > 100 µM | [39] 44.6 µM | [40] 22.3 µM | [41] 30.7 µM | [42] 36.7 µM | [43] 32.7 µM | [44] 31.2 µM | [45] 41.7 µM | [46] 49.7 µM | [47] 28.6 µM | [48] 15 µM | [49] 76.6 µM | [51] 19.9 µM | [52] 4.86 µM | [53] 18.9 µM | [54] 45.5 µM | [55] 22 µM | [56] 40.3 µM | [57] 25.1 µM | [58] 41.8 µM

CCOC(=O)C1(C/C=C/CBr)CCc2ccccc2C1=O (configuration not stated)
19.7 µM: [13]
inactive: [1] 13.6 µM | [2] 13.3 µM | [3] 12 µM | [4] 16.2 µM | [5] 21.9 µM | [6] 6.37 µM | [7] 27.5 µM | [8] 22 µM | [9] 9.1 µM | [11] 10.4 µM | [12] 17.2 µM | [14] 15.7 µM | [15] 19 µM | [17] 29 µM | [18] 14 µM | [19] 16.8 µM | [20] 14.3 µM | [21] 10.4 µM | [22] 6.3 µM | [23] 18.1 µM | [25] 15.7 µM | [26] 13.6 µM | [27] 15.9 µM | [28] 16.2 µM | [30] 15.5 µM | [31] 17.3 µM | [33] 5.25 µM | [34] 19.1 µM | [35] 14.3 µM | [36] 18.5 µM | [37] 12.6 µM | [38] 18.2 µM | [39] 13.1 µM | [40] 6.95 µM | [41] 18.5 µM | [42] 14.1 µM | [43] 14 µM | [44] 14.5 µM | [45] 14.1 µM | [46] 15.1 µM | [47] 7.89 µM | [48] 14.3 µM | [49] 17.5 µM | [50] 15.1 µM | [52] 30.8 µM | [53] 14.4 µM | [54] 10.6 µM | [55] 6.03 µM | [56] 16.7 µM | [57] 11.1 µM | [58] 14.4 µM
